Measured values reported in article PMC7163368 (British Journal of Clinical Pharmacology, 2020).
“Also recorded” adds a separate entry of the source.

Experiment: Safety and tolerability: adverse events, laboratory, ECG, physical examination
Type: in vivo, human

O=C(CN[C@@H]1CCNC1)N1CCC[C@H]1B(O)O [dutogliptin]
AEs with intravenous bolus injection (30 mg i.v.): not associated with any AEs
Dose dependence of related systemic AEs (P > .999): No dose‐dependent increase
Dose dependence of subjects experiencing at least 1 local AE (P > .999): no dose‐dependent increase
Erythema, related: subjects with at least 1 AE (Total (n = 40)): 34 (85%)
Fatigue, related: subjects with at least 1 AE (Total (n = 40)): 2 (5%)
Headache, related: subjects with at least 1 AE (Total (n = 40)): 2 (5%)
Hematoma, related: subjects with at least 1 AE (Total (n = 40)): 4 (10%)
Local AEs, related: subjects with at least 1 AE (Total (n = 40)): 34 (85%)
Other local AEs, related: subjects with at least 1 AE (Total (n = 40)): 1 (3%)
Other systemic AEs, related: subjects with at least 1 AE (Total (n = 40)): 2 (5%)
Pain with touching, related: subjects with at least 1 AE (Total (n = 40)): 8 (20%)
Pain without touching, related: subjects with at least 1 AE (Total (n = 40)): 3 (8%)
Swelling, related: subjects with at least 1 AE (Total (n = 40)): 2 (5%)
Systemic AEs, related: subjects with at least 1 AE (Total (n = 40)): 6 (15%)
Nonrelated serious AE (head injury, hospitalization) (all cohorts): 1
Nonrelated severe AEs (all cohorts): Two nonrelated severe AEs
Related systemic AEs, total (all cohorts): 6
Related serious (or severe) adverse events (all cohorts, 40 healthy males): No related serious adverse events occurred; also recorded: No study drug‐related severe or serious AEs were observed
All AEs, related: subjects with at least 1 AE (i.v. single dose 30 mg (n = 5)): 0
Erythema, related: subjects with at least 1 AE (i.v. single dose 30 mg (n = 5)): 0
Fatigue, related: subjects with at least 1 AE (i.v. single dose 30 mg (n = 5)): 0
Headache, related: subjects with at least 1 AE (i.v. single dose 30 mg (n = 5)): 0
Hematoma, related: subjects with at least 1 AE (i.v. single dose 30 mg (n = 5)): 0
Induration, related: subjects with at least 1 AE (i.v. single dose 30 mg (n = 5)): 0
Local AEs, related: subjects with at least 1 AE (i.v. single dose 30 mg (n = 5)): 0
Other local AEs (burning sensation at the injection site), related: subjects with at least 1 AE (i.v. single dose 30 mg (n = 5)): 0
Other systemic AEs (dizziness and nausea), related: subjects with at least 1 AE (i.v. single dose 30 mg (n = 5)): 0
Pain with touching, related: subjects with at least 1 AE (i.v. single dose 30 mg (n = 5)): 0
Pain without touching, related: subjects with at least 1 AE (i.v. single dose 30 mg (n = 5)): 0
Swelling, related: subjects with at least 1 AE (i.v. single dose 30 mg (n = 5)): 0
Systemic AEs, related: subjects with at least 1 AE (i.v. single dose 30 mg (n = 5)): 0
All AEs, related: subjects with at least 1 AE (s.c. multidose 60 mg (n = 5)): 5 (100%)
Erythema, related: subjects with at least 1 AE (s.c. multidose 60 mg (n = 5)): 5 (100%)
Fatigue, related: subjects with at least 1 AE (s.c. multidose 60 mg (n = 5)): 1 (20%)
Headache, related: subjects with at least 1 AE (s.c. multidose 60 mg (n = 5)): 0
Hematoma, related: subjects with at least 1 AE (s.c. multidose 60 mg (n = 5)): 1 (20%)
Induration, related: subjects with at least 1 AE (s.c. multidose 60 mg (n = 5)): 4 (80%)
Local AEs, related: subjects with at least 1 AE (s.c. multidose 60 mg (n = 5)): 5 (100%)
Other local AEs, related: subjects with at least 1 AE (s.c. multidose 60 mg (n = 5)): 0
Other systemic AEs, related: subjects with at least 1 AE (s.c. multidose 60 mg (n = 5)): 0
Pain with touching, related: subjects with at least 1 AE (s.c. multidose 60 mg (n = 5)): 3 (60%)
Pain without touching, related: subjects with at least 1 AE (s.c. multidose 60 mg (n = 5)): 0
Swelling, related: subjects with at least 1 AE (s.c. multidose 60 mg (n = 5)): 0
Systemic AEs, related: subjects with at least 1 AE (s.c. multidose 60 mg (n = 5)): 1 (20%)
All AEs, related: subjects with at least 1 AE (s.c. multidose 90 mg (n = 5)): 5 (100%)
Erythema, related: subjects with at least 1 AE (s.c. multidose 90 mg (n = 5)): 5 (100%)
Fatigue, related: subjects with at least 1 AE (s.c. multidose 90 mg (n = 5)): 1 (20%)
Headache, related: subjects with at least 1 AE (s.c. multidose 90 mg (n = 5)): 1 (20%)
Hematoma, related: subjects with at least 1 AE (s.c. multidose 90 mg (n = 5)): 1 (20%)
Induration, related: subjects with at least 1 AE (s.c. multidose 90 mg (n = 5)): 4 (80%)
Local AEs, related: subjects with at least 1 AE (s.c. multidose 90 mg (n = 5)): 5 (100%)
Other local AEs, related: subjects with at least 1 AE (s.c. multidose 90 mg (n = 5)): 0
Other systemic AEs (dizziness and nausea), related: subjects with at least 1 AE (s.c. multidose 90 mg (n = 5)): 2 (40%)
Pain with touching, related: subjects with at least 1 AE (s.c. multidose 90 mg (n = 5)): 2 (40%)
Pain without touching, related: subjects with at least 1 AE (s.c. multidose 90 mg (n = 5)): 1 (20%)
Swelling, related: subjects with at least 1 AE (s.c. multidose 90 mg (n = 5)): 1 (20%)
Systemic AEs, related: subjects with at least 1 AE (s.c. multidose 90 mg (n = 5)): 4 (80%)
All AEs, related: subjects with at least 1 AE (s.c. multidose 120 mg (n = 5)): 5 (100%)
Erythema, related: subjects with at least 1 AE (s.c. multidose 120 mg (n = 5)): 5 (100%)
Fatigue, related: subjects with at least 1 AE (s.c. multidose 120 mg (n = 5)): 0
Headache, related: subjects with at least 1 AE (s.c. multidose 120 mg (n = 5)): 0
